± gives the expanded uncertainty stated by the source.
Assays:
[1] = 298.15 K; 101.33 kPa; Liquid; Vibrating tube method
[2] = refractive index (Na D-line) (dimensionless); settings: 298.15 K; 101.33 kPa; Liquid; Standard Abbe refractometry
[3] = xn = mol fraction of the nth substance listed; settings: 298.15 K, 101 kPa, Liquid, Vibrating tube method
[4] = refractive index (Na D-line) (dimensionless); xn = mol fraction of the nth substance listed; settings: 298.15 K, 101 kPa, Liquid, Standard Abbe refractometry

Structure (SMILES): CCCCCCCC[n+]1ccn(C)c1.F[B-](F)(F)F [1-methyl-3-octylimidazolium tetrafluoroborate]
- mass density [1]: 1101.99 ± 6.6 kg/m3
- refractive index [2]: 1.43306 ± 0.0012

Structure (SMILES): CCCC[n+]1ccn(C)c1.O=S(=O)([N-]S(=O)(=O)C(F)(F)F)C(F)(F)F
- mass density [1]: 1436.16 ± 11 kg/m3
- refractive index [2]: 1.42689 ± 0.0012

Structure (SMILES): CCCCn1cc[n+](C)c1.F[P-](F)(F)(F)(F)F [1-butyl-3-methylimidazolium hexafluorophosphate]
- mass density [1]: 1366.95 ± 10 kg/m3
- refractive index [2]: 1.40926 ± 0.0012

Structure (SMILES): CCCCCCCCCCCCCC[P+](CCCCCC)(CCCCCC)CCCCCC.[Cl-] [trihexyl(tetradecyl)phosphonium chloride]
- mass density [1]: 891.82 ± 4.3 kg/m3
- refractive index [2]: 1.48175 ± 0.0012

Structure (SMILES): CC(=O)CC(C)=O [2,4-pentanedione] + CC(CC(C)(C)C)CP(=O)([O-])CC(C)CC(C)(C)C.CCCCCCCCCCCCCC[P+](CCCCCC)(CCCCCC)CCCCCC
- mass density ([3]; x1 = 0.0517): 888.32 ± 3.9 kg/m3
- mass density ([3]; x1 = 0.0958): 889.43 ± 3.5 kg/m3
- mass density ([3]; x1 = 0.2082): 892.48 ± 2.7 kg/m3
- mass density ([3]; x1 = 0.2986): 895.05 ± 2.2 kg/m3
- mass density ([3]; x1 = 0.3991): 898 ± 1.6 kg/m3
- mass density ([3]; x1 = 0.499): 901.47 ± 1.1 kg/m3
- mass density ([3]; x1 = 0.6013): 905.75 ± 0.77 kg/m3
- mass density ([3]; x1 = 0.7004): 911.47 ± 0.48 kg/m3
- mass density ([3]; x1 = 0.7998): 919.31 ± 0.26 kg/m3
- mass density ([3]; x1 = 0.9): 933.94 ± 0.13 kg/m3
- mass density ([3]; x1 = 0.95): 946.89 ± 0.09 kg/m3
- refractive index ([4]; x1 = 0.0517): 1.4714 ± 0.0012
- refractive index ([4]; x1 = 0.0958): 1.4721 ± 0.0011
- refractive index ([4]; x1 = 0.2082): 1.4731 ± 0.0011
- refractive index ([4]; x1 = 0.2986): 1.4742 ± 0.001
- refractive index ([4]; x1 = 0.3991): 1.4751 ± 0.0009
- refractive index ([4]; x1 = 0.499): 1.475 ± 0.0009
- refractive index ([4]; x1 = 0.6013): 1.4753 ± 0.0008
- refractive index ([4]; x1 = 0.7004): 1.474 ± 0.0008
- refractive index ([4]; x1 = 0.7998): 1.4716 ± 0.0007
- refractive index ([4]; x1 = 0.9): 1.4659 ± 0.0007
- refractive index ([4]; x1 = 0.95): 1.4602 ± 0.0007

Structure (SMILES): CC(=O)CC(C)=O [2,4-pentanedione]
- mass density [1]: 971.07 ± 0.07 kg/m3
- refractive index [2]: 1.4509 ± 0.00069

Structure (SMILES): O [water]
- refractive index [2]: 1.33249 ± 0.00033

Structure (SMILES): CCCCCCn1cc[n+](C)c1.F[B-](F)(F)F [1-hexyl-3-methylimidazolium tetrafluoroborate]
- mass density [1]: 1144.46 ± 7.1 kg/m3
- refractive index [2]: 1.42844 ± 0.0012

Structure (SMILES): CCCCCCCCCCCCCC[P+](CCCCCC)(CCCCCC)CCCCCC.N#C[N-]C#N [tetradecyl(trihexyl)phosphonium dicyanamide]
- mass density [1]: 899.14 ± 4.4 kg/m3
- refractive index [2]: 1.48154 ± 0.0012

Structure (SMILES): CCCCCCCCN(CCCCCCCC)CCCCCCCC [trioctylamine]
- mass density [1]: 807.46 ± 0.16 kg/m3
- refractive index [2]: 1.44758 ± 0.00038

Structure (SMILES): CCCCCCCCCCCCCC[P+](CCCCCC)(CCCCCC)CCCCCC.[Cl-] [trihexyl(tetradecyl)phosphonium chloride] + CC(=O)CC(C)=O
- mass density ([3]; x2 = 0.0586): 892.92 ± 0.65 kg/m3
- mass density ([3]; x2 = 0.0977): 893.66 ± 0.6 kg/m3
- mass density ([3]; x2 = 0.1957): 895.67 ± 0.5 kg/m3
- mass density ([3]; x2 = 0.2949): 898.11 ± 0.4 kg/m3
- mass density ([3]; x2 = 0.3989): 901.25 ± 0.32 kg/m3
- mass density ([3]; x2 = 0.4985): 905.14 ± 0.25 kg/m3
- mass density ([3]; x2 = 0.6092): 910.91 ± 0.2 kg/m3
- mass density ([3]; x2 = 0.7096): 918.02 ± 0.16 kg/m3
- mass density ([3]; x2 = 0.8008): 926.85 ± 0.14 kg/m3
- mass density ([3]; x2 = 0.9036): 942.76 ± 0.12 kg/m3
- mass density ([3]; x2 = 0.9508): 953.8 ± 0.12 kg/m3
- refractive index ([4]; x2 = 0.0586): 1.4811 ± 0.0005
- refractive index ([4]; x2 = 0.0977): 1.481 ± 0.0005
- refractive index ([4]; x2 = 0.1957): 1.481 ± 0.0005
- refractive index ([4]; x2 = 0.2949): 1.4805 ± 0.0005
- refractive index ([4]; x2 = 0.3989): 1.4799 ± 0.0004
- refractive index ([4]; x2 = 0.4985): 1.478 ± 0.0004
- refractive index ([4]; x2 = 0.6092): 1.4759 ± 0.0004
- refractive index ([4]; x2 = 0.7096): 1.4741 ± 0.0004
- refractive index ([4]; x2 = 0.8008): 1.4705 ± 0.0004
- refractive index ([4]; x2 = 0.9036): 1.4633 ± 0.0004
- refractive index ([4]; x2 = 0.9508): 1.458 ± 0.0004

Structure (SMILES): CCCCCCCCCCCCCC[P+](CCCCCC)(CCCCCC)CCCCCC.N#C[N-]C#N [tetradecyl(trihexyl)phosphonium dicyanamide] + CC(=O)CC(C)=O
- mass density ([3]; x2 = 0.0599): 899.94 ± 0.65 kg/m3
- mass density ([3]; x2 = 0.113): 900.73 ± 0.59 kg/m3
- mass density ([3]; x2 = 0.2): 902.2 ± 0.5 kg/m3
- mass density ([3]; x2 = 0.3143): 904.54 ± 0.39 kg/m3
- mass density ([3]; x2 = 0.4094): 906.97 ± 0.31 kg/m3
- mass density ([3]; x2 = 0.5016): 909.92 ± 0.25 kg/m3
- mass density ([3]; x2 = 0.5967): 913.83 ± 0.2 kg/m3
- mass density ([3]; x2 = 0.7002): 919.76 ± 0.16 kg/m3
- mass density ([3]; x2 = 0.8004): 928.35 ± 0.14 kg/m3
- mass density ([3]; x2 = 0.9): 942.61 ± 0.12 kg/m3
- mass density ([3]; x2 = 0.9496): 953.89 ± 0.12 kg/m3
- refractive index ([4]; x2 = 0.0599): 1.481 ± 0.0005
- refractive index ([4]; x2 = 0.113): 1.4808 ± 0.0005
- refractive index ([4]; x2 = 0.2): 1.4801 ± 0.0005
- refractive index ([4]; x2 = 0.3143): 1.4795 ± 0.0005
- refractive index ([4]; x2 = 0.4094): 1.4785 ± 0.0004
- refractive index ([4]; x2 = 0.5016): 1.4773 ± 0.0004
- refractive index ([4]; x2 = 0.5967): 1.4757 ± 0.0004
- refractive index ([4]; x2 = 0.7002): 1.4732 ± 0.0004
- refractive index ([4]; x2 = 0.8004): 1.47 ± 0.0004
- refractive index ([4]; x2 = 0.9): 1.463 ± 0.0004
- refractive index ([4]; x2 = 0.9496): 1.4578 ± 0.0004

Structure (SMILES): CCn1cc[n+](C)c1.O=S(=O)([N-]S(=O)(=O)C(F)(F)F)C(F)(F)F
- mass density [1]: 1518.86 ± 2.1 kg/m3
- refractive index [2]: 1.42293 ± 0.0012

Structure (SMILES): CC(CC(C)(C)C)CP(=O)([O-])CC(C)CC(C)(C)C.CCCCCCCCCCCCCC[P+](CCCCCC)(CCCCCC)CCCCCC
- mass density [1]: 886.43 ± 4.3 kg/m3
- refractive index [2]: 1.47125 ± 0.0012

Reference: the NIST ThermoML archive (doi:10.1016/j.fluid.2013.06.013)
